{
  "source": "patent US20040028610A1",
  "about": "“Method of increasing the sensitivity of mammography” (priority 2003, published 2004)",
  "key": {"breast tissue [1]": {"system": "breast tissue", "assay": "Treatment with parenteral (intramuscular) androgen preparation, then mammography and manual breast examination", "format": "in vivo, human (pre and postmenopausal women)", "experimental": "Patients in need of breast cancer examinations were provided parenteral administration of androgen preparations in the clinical setting. Lakeview Pharmacy, Inc. prepared the compounded equivalent of Depo-Testosterone (Testosterone Cypionate 200 mg/ml dissolved in Cottonseed Oil and preserved with Benzyl Benzoate USP and Benzyl Alcohol NF.) in a multi-use vial. The androgen preparation was administered in a dose of about 150 mg to about 200 mg per month for the treatment of fibrocystic breast disorders. The treating physician delivered the preparation intramuscularly in a single dose. The preparation was given to approximately 40 pre and postmenopausal women ranging in age from 24 to 80 years of age. The patients were then scheduled for a mammogram at least one month but not more than three months after commencement of administration of the androgen preparation.\n(§1) In advance of the mammographic procedure, patients were instructed to not wear deodorant (the crystals cause difficulty in reading the films). […] A Picker Digital Mammogram was used to take the frontal and side views of the breast tissue bilaterally. Minimums of two views were taken per breast. The films were then interpreted by a radiologist with experience in interpreting mammograms and graded with the BI-RADS system."}, "breast tissue [2]": {"system": "breast tissue", "assay": "Treatment with topical androgen preparation (PCA cream), then mammography and manual breast examination", "format": "in vivo, human (pre and postmenopausal women)", "from_the_text": "as §1\nPatients in need of breast cancer examinations were provided topical formulations for administration of androgen preparations in the outpatient setting. Lakeview Pharmacy, Inc made up the compounded equivalent of Depo-Testosterone (150 mg of testosterone cypionate mixed in PCA cream) with an application of 6 inches squeezed from a multi-use tube of the mixture and rubbed into the skin on a daily basis. The androgen preparation was administered as a total monthly dose from about 150 mg to about 200 mg. The formulation was given to approximately 15 pre and postmenopausal women ranging in age from 24 to 80 years of age. The patient was then scheduled for a mammogram at least one month but not more than two months after administration of the androgen preparation. Mammography was performed as described in Example 1."}, "breast tissue [3]": {"system": "breast tissue", "assay": "Administration of testosterone to female patients with dense or fibrous breasts (summary statements)", "format": "in vivo, human (pre- and post-menopausal women)"}, "[4]": {"conditions": "patients presenting with dense breast tissue and attendant mastalgia"}, "[5]": {"conditions": "pre- and post-menopausal women with fibrous or dense breasts"}},
  "note": "Entries after “also recorded” stand apart in the source; their conditions may differ.",
  "data": [
    {"smiles": "C[C@]12CC[C@H]3[C@@H](CCC4=CC(=O)CC[C@@]43C)[C@@H]1CC[C@@H]2OC(=O)CCC1CCCC1", "note": "[Testosterone Cypionate]", "values": [
      {"measurement": "alteration of the menstrual cycle by the medication", "setting": "breast tissue [1]", "value": "nor did the medication alter the menstrual cycle"},
      {"measurement": "radiographic breast density on mammographic images", "setting": "breast tissue [1]; about 150 mg to about 200 mg per month, approximately 40 women, seen after only one monthly treatment, films graded with BI-RADS", "value": "appreciable reduction"},
      {"measurement": "breast palpability by manual examination", "setting": "breast tissue [1]; about 150 mg to about 200 mg per month, seen after only one monthly treatment", "value": "improved"},
      {"measurement": "mammographic changes in density, patients affected", "setting": "breast tissue [1]; most significant in those patients with dense breasts", "value": "noted in all patients"},
      {"measurement": "lesions requiring 6-month follow up, at second mammogram", "setting": "breast tissue [1]; sustained treatment for 6 or more months, some lesions", "value": "disappeared"},
      {"measurement": "effects on radiographic and palpable density after two months of treatment (versus one month)", "setting": "breast tissue [1]; two months of androgen treatment prior to examination", "value": "More significant effects"},
      {"measurement": "alteration of the menstrual cycle by the medication", "setting": "breast tissue [2]; topical", "value": "nor did the medication alter the menstrual cycle"},
      {"measurement": "radiographic breast density on mammographic images", "setting": "breast tissue [2]; topical PCA cream daily, total monthly dose about 150 mg to about 200 mg, approximately 15 women, seen after only one monthly treatment", "value": "appreciable reduction"},
      {"measurement": "breast palpability by manual examination", "setting": "breast tissue [2]; topical PCA cream daily, total monthly dose about 150 mg to about 200 mg, seen after only one monthly treatment", "value": "improved"},
      {"measurement": "mammographic changes in density, patients affected", "setting": "breast tissue [2]; topical, most significant in those patients with dense breasts", "value": "noted in all patients"},
      {"measurement": "lesions requiring 6-month follow up, at second mammogram", "setting": "breast tissue [2]; topical, sustained treatment for 6 or more months, some lesions", "value": "disappeared"},
      {"measurement": "effects on radiographic and palpable density after two months of treatment (versus one month)", "setting": "breast tissue [2]; topical, two months of androgen treatment prior to examination", "value": "More significant effects"}
    ]},
    {"smiles": "C[C@]12CC[C@H]3[C@@H](CCC4=CC(=O)CC[C@@]43C)[C@@H]1CC[C@@H]2O", "note": "[testosterone]", "values": [
      {"measurement": "visualization of breast tissue in mammographic procedures", "setting": "breast tissue [3]; female patients with dense breast tissue", "value": "significantly improved"},
      {"measurement": "mammographic opacity and overall density", "setting": "breast tissue [3]; [4]", "value": "marked reduction"},
      {"measurement": "palpability of breast tissue during manual examination", "setting": "breast tissue [3]; [4]", "value": "significantly improved"},
      {"measurement": "number or size of fibrous (fibrocystic) breast lesions", "setting": "breast tissue [3]; [5]", "value": "decrease; also recorded: reduced"},
      {"measurement": "palpable breast density", "setting": "breast tissue [3]; [5]", "value": "decrease"},
      {"measurement": "radiographic density", "setting": "breast tissue [3]; [5]", "value": "decrease"},
      {"measurement": "symptoms secondary to cyclic causes (sense of breast fullness or heaviness)", "setting": "breast tissue [3]; [5]", "value": "eliminated; also recorded: reduced"}
    ]}
  ]
}
